Measured values reported in patent US20070049593A1 (priority 2004, published 2007).
Counter-ions that a name gives are not always drawn.

molecular target: T1, HCV polymerase (Hepatitis C virus genotype 1b, UniProt P26663); experiment: biochemical; design: species or system HCV BK strain
T1 construct: a region encoding NS5B (J Virol 1991 March, 65(3), 1105-13, 544 amino acids after deletion of 47 amino acids on the C-terminal); 6xHis (C); made in house; host or cells: Escherichia coli
Outline: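 Recombinant HCV BK-strain NS5B (C-terminal 47 aa deleted, His6-tagged, E. coli), 0.5 μg/ml, run with 5 μg/ml in vitro-transcribed RNA template (polyU/3′X), ATP/GTP/CTP 50 μM, UTP 2 μM plus [3H]UTP, pH 7.5, 25° C, 90 min. TCA-precipitated RNA counted by scintillation; IC50 from activity with vs without compound.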

T1 sequence (P26663 2420-2963): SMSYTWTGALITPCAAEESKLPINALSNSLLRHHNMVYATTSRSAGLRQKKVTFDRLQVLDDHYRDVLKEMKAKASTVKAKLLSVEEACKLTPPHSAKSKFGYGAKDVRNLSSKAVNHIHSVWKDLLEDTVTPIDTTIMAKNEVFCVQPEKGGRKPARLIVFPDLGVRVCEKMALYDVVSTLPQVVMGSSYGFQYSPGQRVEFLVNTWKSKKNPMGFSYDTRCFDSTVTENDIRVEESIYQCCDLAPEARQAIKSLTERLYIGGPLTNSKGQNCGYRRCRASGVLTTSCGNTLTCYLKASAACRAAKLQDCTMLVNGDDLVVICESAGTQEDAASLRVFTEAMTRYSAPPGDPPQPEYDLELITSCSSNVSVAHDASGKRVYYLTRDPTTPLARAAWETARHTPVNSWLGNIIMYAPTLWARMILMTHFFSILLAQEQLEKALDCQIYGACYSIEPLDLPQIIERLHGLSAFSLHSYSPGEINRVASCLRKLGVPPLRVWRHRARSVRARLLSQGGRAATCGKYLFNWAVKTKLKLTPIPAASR

Compound	IC50 [nM]
O=C(O)c1ccc2c(C3CCCCC3)c3n(c2c1)CCN(CCN1CCCC2CCCCC21)c1ccccc1-3 (stereo not shown) [Example 1-144, 13-cyclohexyl-5-[2-(octahydroquinolin-1-yl)ethyl]-6,7-dihydro-5H-benzo[5,6][1,4]diazepino[7,1-a]indole-10-carboxylic acid dihydrochloride]	< 100
O=C(O)c1ccc2c(C3CCCCC3)c3n(c2c1)CCN(CCN1Cc2ccccc2C1)c1ccccc1-3 [Example 1-145, 13-cyclohexyl-5-[2-(1,3-dihydroisoindol-2-yl)ethyl]-6,7-dihydro-5H-benzo[5,6][1,4]diazepino[7,1-a]indole-10-carboxylic acid dihydrochloride]	< 100
O=C(O)c1ccc2c(C3CCCCC3)c3n(c2c1)CCN(CCN1CCC2CCCCC2C1)c1ccccc1-3 (stereo not shown) [Example 1-146, 13-cyclohexyl-5-[2-(octahydroisoquinolin-2-yl)ethyl]-6,7-dihydro-5H-benzo[5,6][1,4]diazepino[7,1-a]indole-10-carboxylic acid dihydrochloride]	< 100
CN(C)CCCN1CCn2c(c(C3CCCCC3)c3ccc(C(=O)O)cc32)-c2ccccc21 [Example 1-148, 13-cyclohexyl-5-(3-dimethylaminopropyl)-6,7-dihydro-5H-benzo[5,6][1,4]diazepino[7,1-a]indole-10-carboxylic acid dihydrochloride]	< 100
O=C(O)c1ccc2c(C3CCCCC3)c3n(c2c1)CCN(CCN1CCCCC1)c1c(F)cccc1-3 [Example 1-149, 13-cyclohexyl-4-fluoro-5-[2-(piperidin-1-yl)ethyl]-6,7-dihydro-5H-benzo[5,6][1,4]diazepino[7,1-a]indole-10-carboxylic acid dihydrochloride]	< 100
CC(C)C1CCN(CCN2CCn3c(c(C4CCCCC4)c4ccc(C(=O)O)cc43)-c3ccccc32)CC1 [Example 1-150, 13-cyclohexyl-5-[2-(4-isopropylpiperidin-1-yl)ethyl]-6,7-dihydro-5H-benzo[5,6][1,4]diazepino[7,1-a]indole-10-carboxylic acid dihydrochloride]	< 100
COC1CCCN(CCN2CCn3c(c(C4CCCCC4)c4ccc(C(=O)O)cc43)-c3ccccc32)C1 (stereo not shown) [Example 1-151, 13-cyclohexyl-5-[2-(3-methoxypiperidin-1-yl)ethyl]-6,7-dihydro-5H-benzo[5,6][1,4]diazepino[7,1-a]indole-10-carboxylic acid dihydrochloride]	< 100
CC(C)(C)OC(=O)N1CCCC(CN2CCn3c(c(C4CCCCC4)c4ccc(C(=O)O)cc43)-c3ccccc32)C1 (stereo not shown) [Example 1-152, 5-(1-tert-butoxycarbonylpiperidin-3-ylmethyl)-13-cyclohexyl-6,7-dihydro-5H-benzo[5,6][1,4]diazepino[7,1-a]indole-10-carboxylic acid]	< 100
CCN1CCCC(CN2CCn3c(c(C4CCCCC4)c4ccc(C(=O)O)cc43)-c3ccccc32)C1 (stereo not shown) [Example 1-153, 13-cyclohexyl-5-(1-ethylpiperidin-3-ylmethyl)-6,7-dihydro-5H-benzo[5,6][1,4]diazepino[7,1-a]indole-10-carboxylic acid dihydrochloride]	< 100
O=C(O)c1ccc2c(C3CCCCC3)c3n(c2c1)CCN(CCN1CCCCCCC1)c1ccccc1-3 [Example 1-154, 5-[2-(azocan-1-yl)ethyl]-13-cyclohexyl-6,7-dihydro-5H-benzo[5,6][1,4]diazepino[7,1-a]indole-10-carboxylic acid]	< 100
O=C(O)c1ccc2c(C3CCCCC3)c3n(c2c1)CCN(CCN1CCCCCCCC1)c1ccccc1-3 [Example 1-155, 5-[2-(azonan-1-yl)ethyl]-13-cyclohexyl-6,7-dihydro-5H-benzo[5,6][1,4]diazepino[7,1-a]indole-10-carboxylic acid]	< 100
CC1CCCCN1CCN1CCn2c(c(C3CCCCC3)c3ccc(C(=O)O)cc32)-c2ccccc21 (stereo not shown) [Example 1-156, 13-cyclohexyl-5-[2-(2-methylpiperidin-1-yl)ethyl]-6,7-dihydro-5H-benzo[5,6][1,4]diazepino[7,1-a]indole-10-carboxylic acid]	< 100
O=C(O)c1ccc2c(C3CCCCC3)c3n(c2c1)CCN(CCC1CCN(C2CCCC2)CC1)c1ccccc1-3 [Example 1-157, 13-cyclohexyl-5-[2-(1-cyclopentylpiperidin-4-yl)ethyl]-6,7-dihydro-5H-benzo[5,6][1,4]diazepino[7,1-a]indole-10-carboxylic acid dihydrochloride]	< 100
O=C(O)c1ccc2c(C3CCCCC3)c3n(c2c1)CCN(CC(=O)N1CCC(C(F)(F)F)CC1)c1ccccc1-3 [Example 1-158, 13-cyclohexyl-5-[2-oxo-2-(4-trifluoromethylpiperidin-1-yl)ethyl]-6,7-dihydro-5H-benzo[5,6][1,4]diazepino[7,1-a]indole-10-carboxylic acid monohydrochloride]	< 100
O=C(O)c1ccc2c(C3CCCCC3)c3n(c2c1)CCN(CCN1CCCCC1)c1cc(C(F)(F)F)ccc1-3 [Example 1-159, 13-cyclohexyl-5-[2-(piperidin-1-yl)ethyl]-3-trifluoromethyl-6,7-dihydro-5H-benzo[5,6][1,4]diazepino[7,1-a]indole-10-carboxylic acid dihydrochloride]	< 100
CCN1CCN(CCN2CCn3c(c(C4CCCCC4)c4ccc(C(=O)O)cc43)-c3ccc(F)cc32)CC1 [Example 1-160, 13-cyclohexyl-5-[2-(4-ethylpiperazin-1-yl)ethyl]-3-fluoro-6,7-dihydro-5H-benzo[5,6][1,4]diazepino[7,1-a]indole-10-carboxylic acid trihydrochloride]	< 100
CC(C)(C)OC(=O)N1CCCCC1CCN1CCn2c(c(C3CCCCC3)c3ccc(C(=O)O)cc32)-c2ccccc21 (stereo not shown) [Example 1-161, 5-[2-(1-tert-butoxycarbonylpiperidin-2-yl)ethyl]-13-cyclohexyl-6,7-dihydro-5H-benzo[5,6][1,4]diazepino[7,1-a]indole-10-carboxylic acid monohydrochloride]	< 100
CCN1CCN(C(=O)CN2CCn3c(c(C4CCCCC4)c4ccc(C(=O)O)cc43)-c3ccc(F)cc32)CC1 [Example 1-162, 13-cyclohexyl-5-[2-(4-ethylpiperazin-1-yl)-2-oxoethyl]-3-fluoro-6,7-dihydro-5H-benzo[5,6][1,4]diazepino[7,1-a]indole-10-carboxylic acid dihydrochloride]	< 100
O=C(O)c1ccc2c(C3CCCCC3)c3n(c2c1)CCN(CCc1ccccn1)c1ccccc1-3 [Example 1-163, 13-cyclohexyl-5-[2-(pyridin-2-yl)ethyl]-6,7-dihydro-5H-benzo[5,6][1,4]diazepino[7,1-a]indole-10-carboxylic acid dihydrochloride]	< 100
COCCN1CCn2c(c(C3CCCCC3)c3ccc(C(=O)O)cc32)-c2ccccc21 [Example 1-164, 13-cyclohexyl-5-(2-methoxyethyl)-6,7-dihydro-5H-benzo[5,6][1,4]diazepino[7,1-a]indole-10-carboxylic acid monohydrochloride]	< 100
O=C(O)c1ccc2c(C3CCCCC3)c3n(c2c1)CCN(CCC1CCCNC1)c1ccccc1-3 (stereo not shown) [Example 1-165, 13-cyclohexyl-5-[2-(piperidin-3-yl)ethyl]-6,7-dihydro-5H-benzo[5,6][1,4]diazepino[7,1-a]indole-10-carboxylic acid dihydrochloride]	< 100
CCN1CCCC(CCN2CCn3c(c(C4CCCCC4)c4ccc(C(=O)O)cc43)-c3ccccc32)C1 (stereo not shown) [Example 1-166, 13-cyclohexyl-5-[2-(1-ethylpiperidin-3-yl)ethyl]-6,7-dihydro-5H-benzo[5,6][1,4]diazepino[7,1-a]indole-10-carboxylic acid dihydrochloride]	< 100
CC(C)(C)OC(=O)N1CCCC(CCN2CCn3c(c(C4CCCCC4)c4ccc(C(=O)O)cc43)-c3ccccc32)C1 (stereo not shown) [Example 1-167, 5-[2-(1-tert-butoxycarbonylpiperidin-3-yl)ethyl]-13-cyclohexyl-6,7-dihydro-5H-benzo[5,6][1,4]diazepino[7,1-a]indole-10-carboxylic acid]	100 to 1000
Cc1ccc2c(c1)N(CCN1CCCOCC1)CCn1c-2c(C2CCCCC2)c2ccc(C(=O)O)cc21 [Example 1-168, 13-cyclohexyl-3-methyl-5-[2-(1,4-oxazepan-4-yl)ethyl]-6,7-dihydro-5H-benzo[5,6][1,4]diazepino[7,1-a]indole-10-carboxylic acid]	< 100
O=C(O)c1ccc2c(C3CCCCC3)c3n(c2c1)CCN(CCN1CCCOCC1)c1cc(Cl)ccc1-3 [Example 1-169, 3-chloro-13-cyclohexyl-5-[2-(1,4-oxazepan-4-yl)ethyl]-6,7-dihydro-5H-benzo[5,6][1,4]diazepino[7,1-a]indole-10-carboxylic acid monohydrochloride]	< 100
O=C(O)c1ccc2c(C3CCCCC3)c3n(c2c1)CCN(CCN1CCCOCC1)c1cc(F)ccc1-3 [Example 1-170, 13-cyclohexyl-3-fluoro-5-[2-(1,4-oxazepan-4-yl)ethyl]-6,7-dihydro-5H-benzo[5,6][1,4]diazepino[7,1-a]indole-10-carboxylic acid dihydrochloride]	< 100
O=C(O)c1ccc2c(C3CCCCC3)c3n(c2c1)CCN(CC(=O)N1CCC(F)(F)CC1)c1ccccc1-3 [Example 1-171, 13-cyclohexyl-5-[2-(4,4-difluoropiperidin-1-yl)-2-oxoethyl]-6,7-dihydro-5H-benzo[5,6][1,4]diazepino[7,1-a]indole-10-carboxylic acid monohydrochloride]	< 100
O=C(O)c1ccc2c(C3CCCCC3)c3n(c2c1)CCN(CCN1CCC(C(F)(F)F)CC1)c1ccccc1-3 [Example 1-172, 13-cyclohexyl-5-[2-(4-trifluoromethylpiperidin-1-yl)ethyl]-6,7-dihydro-5H-benzo[5,6][1,4]diazepino[7,1-a]indole-10-carboxylic acid dihydrochloride]	< 100
